According to patent US20080103164A1, “USEFUL COMPOUNDS FOR HPV INFECTION” (priority 2004, published 2008):

System: episomal HPV-16 DNA in W12-20850 cells
Experiment: W-12 cellular assay: episomal HPV-16 DNA quantified by hybrid capture in W12-20850 cells
Assay type: cell-based, HPV16
Details: Human papillomavirus 16, 96 h, four days incubation, inhibition of episomal HPV-16 DNA relative to untreated control
Experimental: Compounds of the current invention are believed useful in the treatment and/or prophylaxis of conditions and diseases associated with HPV infection. Activity mediated through HPV was determined using the following W-12 cellular assay. The […] cell line used contains HPV16 DNA and was derived from a low-grade cervical dysplasia tissue by Margaret Stanley and subsequently clonally selected by Paul Lambert (University of Wisconsin). One of these clones, […]-20850, contains 1000 copies of episomal HPV16 DNA and was used in the cell-based assay. […]-20850 cells were routinely cultured with a gamma-irradiated (6000 rads) feeder layer of 3T3 cells. Assays, however, were run in the absence of a 3T3 feeder layer. […]-20850 and 3T3 cells were routinely split when they were sub-confluent. […]-20850 were grown in […] Medium which is constituted of 25% DMEM (Gibco BRL, Cat # 12430-047), 75% F12 Media (Gibco BRL, Cat # 11765-021) and 2.5% FBS. The additives include […] Adenine (Sigma, Cat # A-9795), […] Hydrocortisone (Calbiochem, Cat # 386698), […] Bovine Insulin (Sigma, Cat # 1-1882), 8.4 ng/ml cholera toxin (Fluka, Cat # 26694) and 10 ng/ml EGF (Invitrogen, Cat # 13247-051). 3T3 cells were grown in DMEM containing 10% FBS. Cell lines were incubated at 37° C., in the presence of 5% CO2. For the assay, […]-20850 cells were seeded into a 96 well plate-containing compound. Plates were incubated at 37° C. in the presence of 5% CO2, for four days. On the fourth day, cells were lysed and the amount of episomal HPV-16 DNA was quantified using a non-radioactive hybrid capture technique with HPV-16 specific capture and detection probes. The percent inhibition relative to untreated control cells was then determined. The hybrid capture assay is run in a 96 well plate format. Hybridization plates (Nunc Maxisorb Cat # 450320) were coated with a mixture of capture probe and ReactiBind solution for at least 4 hours and then washed with 0.2×SSC, 0.05% Tween-20 (SSCT) prior to blocking with 150 μl/well of 0.2 N NaOH, 1% Igepal, 10 mg/ml hsDNA for 6-8 hours. The hybridization was carried out by mixing 27 μl of lysed cells with 45 μl of denatured detection probe in 6M guanidine isothiocyanate. To prevent evaporation, 50 μl of mineral oil was added to each well. The plate was then heated to 90° C. for 6.5 minutes and the hybridization continued at 42° C. overnight. Assay plates were washed 6 times with SSC/T. Anti-digoxigenin HRP-conjugated Ab (Boehringer Mannheim 1207733, 1:5000) was incubated in the wells for 30 min at room temperature and washed with PBS/0.05% Tween-20. SuperSignal LBA substrate (Pierce Cat # 37070) was added, and chemiluminescence was measured using Wallac 1420 Victor plate reader.

IC50 | Compound
68 nM | COC(=O)N1CCc2c([nH]c3ccc(Cl)cc23)C1c1ccc(C)cc1 (stereo not drawn) [Example 2, Methyl 6-chloro-1-(4-methylphenyl)-1,3,4,9-tetrahydro-2H-β-carboline-2-carboxylate]
60 nM | Cc1ccc(C2c3[nH]c4ccc(Cl)cc4c3CCN2C(=O)CCc2ccccc2)cc1 (stereo not drawn) [Example 3, 6-Chloro-1-(4-methylphenyl)-2-(3-phenylpropanoyl)-2,3,4,9-tetrahydro-1H-β-carboline]
22 nM | Cc1ccc(C2c3[nH]c4ccc(Cl)cc4c3CCN2C(=O)OCc2ccccc2)cc1 (stereo not drawn) [Example 4, Phenylmethyl 6-chloro-1-(4-methylphenyl)-1,3,4,9-tetrahydro-2H-β-carboline-2-carboxylate]
365 nM | COC(=O)N1CCc2c([nH]c3ccc(F)cc23)C1c1ccc(C)cc1 (stereo not drawn) [Example 6, Methyl 6-fluoro-1-(4-methylphenyl)-1,3,4,9-tetrahydro-2H-β-carboline-2-carboxylate]
216 nM | Cc1ccc(C2c3[nH]c4ccc(F)cc4c3CCN2C(=O)CCc2ccccc2)cc1 (stereo not drawn) [Example 7, 6-Fluoro-1-(4-methylphenyl)-2-(3-phenylpropanoyl)-2,3,4,9-tetrahydro-1H-β-carboline]
446 nM | Cc1ccc(C2c3[nH]c4ccc(F)cc4c3CCN2C(=O)OCc2ccccc2)cc1 (stereo not drawn) [Example 8, Phenylmethyl 6-fluoro-1-(4-methylphenyl)-1,3,4,9-tetrahydro-2H-β-carboline-2-carboxylate]
11 nM | COC(=O)N1CCc2c([nH]c3ccc(Br)cc23)C1c1ccc(C)cc1 (stereo not drawn) [Example 10, Methyl 6-bromo-1-(4-methylphenyl)-1,3,4,9-tetrahydro-2H-β-carboline-2-carboxylate]
20 nM | Cc1ccc(C2c3[nH]c4ccc(Br)cc4c3CCN2C(=O)CCc2ccccc2)cc1 (stereo not drawn) [Example 11, 6-Bromo-1-(4-methylphenyl)-2-(3-phenylpropanoyl)-2,3,4,9-tetrahydro-1H-β-carboline]
14 nM | Cc1ccc(C2c3[nH]c4ccc(Br)cc4c3CCN2C(=O)OCc2ccccc2)cc1 (stereo not drawn) [Example 12, Phenylmethyl 6-bromo-1-(4-methylphenyl)-1,3,4,9-tetrahydro-2H-β-carboline-2-carboxylate]
8000 nM | Cc1ccc([C@@H]2c3[nH]c4ccc(Cl)cc4c3CCN2C(=O)CCc2ccccc2)cc1 [Example 13, (1R)-6-Chloro-1-(4-methylphenyl)-2-(3-phenylpropanoyl)-2,3,4,9-tetrahydro-1H-β-carboline]
15 nM | Cc1ccc([C@H]2c3[nH]c4ccc(Cl)cc4c3CCN2C(=O)CCc2ccccc2)cc1 [Example 14, (1S)-6-Chloro-1-(4-methylphenyl)-2-(3-phenylpropanoyl)-2,3,4,9-tetrahydro-1H-β-carboline]
7000 nM | Cc1ccc(C2c3[nH]c4ccccc4c3CCN2S(=O)(=O)Cc2ccccc2)cc1 (stereo not drawn) [Example 15, 1-(4-Methylphenyl)-2-[(phenylmethyl)sulfonyl]-2,3,4,9-tetrahydro-1H-β-carboline]
24000 nM | Cc1ccc(C2c3[nH]c4ccccc4c3CCN2S(C)(=O)=O)cc1 (stereo not drawn) [Example 16, 1-(4-Methylphenyl)-2-(methylsulfonyl)-2,3,4,9-tetrahydro-1H-β-carboline]
10000 nM | Cc1ccc(C2c3[nH]c4ccccc4c3CCN2S(=O)(=O)c2ccc(N)cc2)cc1 (centres unmarked) [Example 17, (4-{[1-(4-Methylphenyl)-1,3,4,9-tetrahydro-2H-b-carbolin-2-yl]sulfonyl}phenyl)amine]
5000 nM | CC(=O)N1CCc2c([nH]c3ccccc23)C1c1ccc(C)cc1 (stereo not drawn) [Example 18, 2-Acetyl-1-(4-methylphenyl)-2,3,4,9-tetrahydro-1H-β-carboline]
1000 nM | Cc1ccc(C2c3[nH]c4ccccc4c3CCN2C(=O)CCc2ccccc2)cc1 (stereo not drawn) [Example 19, 1-(4-Methylphenyl)-2-(3-phenylpropanoyl)-2,3,4,9-tetrahydro-1H-β-carboline]

IC50 | Compound
26000 nM | Cc1ccc(C2c3[nH]c4ccccc4c3CCN2C(=O)C#Cc2ccccc2)cc1 (centres unmarked) [Example 20, 1-(4-Methylphenyl)-2-(3-phenyl-2-propynoyl)-2,3,4,9-tetrahydro-1H-b-carboline]
18000 nM | Cc1ccc(C2c3[nH]c4ccccc4c3CCN2C(=O)CCc2cccnc2)cc1 (stereo not drawn) [Example 21, 1-(4-Methylphenyl)-2-[3-(3-pyridinyl)propanoyl]-2,3,4,9-tetrahydro-1H-β-carboline]
4000 nM | Cc1ccc(C2c3[nH]c4ccccc4c3CCN2C(=O)CNC(=O)OCc2ccccc2)cc1 (centres unmarked) [Example 22, Phenylmethyl {2-[1-(4-methylphenyl)-1,3,4,9-tetrahydro-2H-b-carbolin-2-yl]-2-oxoethyl}carbamate]
600 nM | COc1ccc2[nH]c3c(c2c1)CCN(C(=O)CCc1ccccc1)C3c1ccc(C)cc1 (stereo not drawn) [Example 23, 6-(Methyloxy)-1-(4-methylphenyl)-2-(3-phenylpropanoyl)-2,3,4,9-tetrahydro-1H-β-carboline]
2000 nM | Cc1ccc(C2c3[nH]c4c(C)cccc4c3CCN2C(=O)CCc2ccccc2)cc1 (stereo not drawn) [Example 24, 8-Methyl-1-(4-methylphenyl)-2-(3-phenylpropanoyl)-2,3,4,9-tetrahydro-1H-β-carboline]
400 nM | Cc1ccc(C2c3[nH]c4ccc(C)cc4c3CCN2C(=O)CCc2ccccc2)cc1 (stereo not drawn) [Example 25, 6-Methyl-1-(4-methylphenyl)-2-(3-phenylpropanoyl)-2,3,4,9-tetrahydro-1H-β-carboline]
2000 nM | Cc1ccc(C2c3[nH]c4cc(F)ccc4c3CCN2C(=O)CCc2ccccc2)cc1 (stereo not drawn) [Example 26, 7-Fluoro-1-(4-methylphenyl)-2-(3-phenylpropanoyl)-2,3,4,9-tetrahydro-1H-β-carboline]
6000 nM | COc1ccc2c3c([nH]c2c1)C(c1ccc(C)cc1)N(C(=O)CCc1ccccc1)CC3 (stereo not drawn) [Example 27, 7-(Methyloxy)-1-(4-methylphenyl)-2-(3-phenylpropanoyl)-2,3,4,9-tetrahydro-1H-β-carboline]
> 20000 nM | O=C(/C=C/c1ccccc1)N1CCc2c([nH]c3ccccc23)[C@H]1c1ccc2c(c1)CCO2 [Example 30, (1R)-1-(2,3-dihydro-1-benzofuran-5-yl)-2-[(2E)-3-phenyl-2-propenoyl]-2,3,4,9-tetrahydro-1H-β-carboline]
2000 nM | O=C(/C=C/c1ccccc1)N1CCc2c([nH]c3ccccc23)[C@@H]1c1ccc2c(c1)CCO2 [Example 31, (1S)-1-(2,3-dihydro-1-benzofuran-5-yl)-2-[(2E)-3-Phenyl-2-propenoyl]-2,3,4,9-tetrahydro-1H-β-carboline]
2000 nM | COc1ccc(-c2ccnc(N3CCc4c([nH]c5ccccc45)C3c3ccc4c(c3)OCO4)n2)cc1 (stereo not drawn) [Example 32, 1-(1,3-benzodioxol-5-yl)-2-{4-[4-(methyloxy)phenyl]-2-pyrimidinyl}-2,3,4,9-tetrahydro-1H-β-carboline]
5000 nM | c1cnc(N2CCc3c([nH]c4ccccc34)C2c2ccc3c(c2)OCO3)nc1 (stereo not drawn) [Example 33, 1-(1,3-benzodioxol-5-yl)-2-(2-pyrimidinyl)-2,3,4,9-tetrahydro-1H-β-carboline]
2000 nM | c1ccc(-c2ccnc(N3CCc4c([nH]c5ccccc45)C3c3ccc4c(c3)OCO4)n2)cc1 (stereo not drawn) [Example 34, 1-(1,3-benzodioxol-5-yl)-2-(4-phenyl-2-pyrimidinyl)-2,3,4,9-tetrahydro-1H-β-carboline]
2000 nM | c1ccc(-c2ccnc(N3CCc4c([nH]c5ccccc45)C3c3ccccc3)n2)cc1 (stereo not drawn) [Example 35, 1-phenyl-2-(4-phenyl-2-pyrimidinyl)-2,3,4,9-tetrahydro-1H-β-carboline]
3000 nM | c1ccc(-c2ccnc(N3CCc4c([nH]c5ccccc45)C3c3ccc4c(c3)CCO4)n2)cc1 (stereo not drawn) [Example 36, 1-(2,3-dihydro-1-benzofuran-5-yl)-2-(4-phenyl-2-pyrimidinyl)-2,3,4,9-tetrahydro-1H-β-carboline]

Same assay, conditions: four days incubation, inhibition of episomal HPV-16 DNA relative to untreated control

IC50 | Compound
3000 nM | O=C(/C=C/c1ccccc1)N1CCc2c([nH]c3ccccc23)C1c1ccc2c(c1)CCO2 (stereo not drawn) [Example 29, (1R/1S)-1-(2,3-dihydro-1-benzofuran-5-yl)-2-[(2E)-3-phenyl-2-propenoyl]-2,3,4,9-tetrahydro-1H-β-carboline]
